Legend:
5′-TGTGAACA-3′ = assay: DNase I footprint titrations; details: single base pair mismatch sequence
5′-TGTAACA-3′ = assay: DNase I footprint titration
5′-TGGAACA-3′ = assay: DNase I footprint titration; details: formal match sequence

Row | Ka (5′-TGTGAACA-3′) [M⁻¹] | reduction of affinity of the 5′-TGTAACA-3′ complex relative to ImPyPyPyPy-γ-ImPyPyPyPy-β-Dp (5′-TGTAACA-3′) [fold] | free energy difference (5′-TGTAACA-3′; 5′-TGTAACA-3′ complexes) | equilibrium association constant Ka (5′-TGTAACA-3′; pH 7.0, 22° C.) [M⁻¹] | equilibrium association constant Ka (5′-TGGAACA-3′) | Structure (SMILES)
1 | < 1e+09 | – | – | – | – | CN(C)CCCNC(=O)CCNC(=O)c1cc(NC(=O)c2cc(NC(=O)CCNC(=O)c3cc(NC(=O)c4cc(NC(=O)c5nc(NC(=O)CCCNC(=O)c6cc(NC(=O)c7cc(NC(=O)c8cc(NC(=O)CCNC(=O)c9cc(NC(=O)c%10nccn%10C)cn9C)cn8C)cn7C)cn6C)cn5C)cn4C)cn3C)cn2C)cn1C
2 | – | > 300 | at least 4 kcal/mol | < 1e+07 | 3.6×10^9 m^−1 | CN(C)CCCNC(=O)CCNC(=O)c1cc(NC(=O)c2cc(NC(=O)c3cc(NC(=O)c4cc(NC(=O)c5nc(NC(=O)CCCNC(=O)c6cc(NC(=O)c7cc(NC(=O)c8cc(NC(=O)c9nc(NC(=O)c%10nccn%10C)cn9C)cn8C)cn7C)cn6C)cn5C)cn4C)cn3C)cn2C)cn1C [ImImPyPyPy-γ-ImPyPyPyPy-β-Dp]

— US6555692B1, “Preparation and use of bifunctional molecules having DNA sequence binding specificity” (California Institute of Technology, priority 1996, dated 2003)
